Results published in patent publication US5246926A, “Cephalosporin derivatives” (Beecham Group p.l.c., priority 1989, dated 1993).
Values after ≈ are worked out from the molar mass of the structure shown.

Assays:
E. coli (NCTC 10418) = assay: In vitro antibacterial activity, M.I.C. against E. coli; assay type: cell-based; details: Escherichia coli, NCTC10418
S. aureus (Oxford) = assay: In vitro antibacterial activity, M.I.C. against S. aureus; assay type: cell-based; details: Staphylococcus aureus

SMILES	MIC (E. coli (NCTC 10418))	MIC (S. aureus (Oxford))
CO/N=C(\C(=O)N[C@@H]1C(=O)N2C(C(=O)[O-])=C(C3CCOC3=O)CS[C@H]12)c1csc(N)n1.[Na+] (mixture of isomers) [Example 15, Sodium (6R,7R)-7-[2-(2-aminothiazol-4-yl)-2-(Z)-methoxyiminoacetamido]-3-[(3RS)-2-oxotetrahydrofuran-3-yl]ceph-3-em-4-carboxylate]	0.25 µg/mL	4 µg/mL
CO/N=C(\C(=O)N[C@@H]1C(=O)N2C(C(=O)O)=C(C3COC(=O)C3)CS[C@H]12)c1csc(N)n1 (stereo partly shown) [Example 8]	32 µg/mL (≈ 68.5 µM)	4 µg/mL (≈ 8.56 µM)
CO/N=C(\C(=O)N[C@@H]1C(=O)N2C(C(=O)O)=C(C3CCC(=O)O3)CS[C@H]12)c1csc(N)n1 (mixture of isomers) [Example 3, Sodium (6R,7R)-7-[2-(2-Aminothiazol-4-yl)-2-(Z)-methoxyiminoacetamido]-3-[(5RS)-2-oxotetrahydrofuran-5-yl]ceph-3-em-4-carboxylate]	< 0.03 µg/mL	1 µg/mL
Nc1nc(/C(=N/O)C(=O)N[C@@H]2C(=O)N3C(C(=O)O)=C(C4CCC(=O)O4)CS[C@H]23)cs1 (mixture of isomers) [Example 5, (6R,7R)-7-[2-(2-Aminothiazol-4-yl)-2-(Z)-hydroxyiminoacetamido]-3-[(5RS)-2-oxotetrahydrofuran-5-yl)ceph-3-em-4-carboxylic acid]	< 0.03 µg/mL	0.25 µg/mL
Nc1nc(/C(=N/OCC(=O)O)C(=O)N[C@@H]2C(=O)N3C(C(=O)O)=C(C4CCC(=O)O4)CS[C@H]23)cs1 (stereo partly shown) [Example 10]	0.12 µg/mL (≈ 0.235 µM)	8 µg/mL (≈ 15.6 µM)
